Laboratory results reported in patent publication US20210045385A1, “PYRIDAZINONE-SUBSTITUTED KETOXIMES AS HERBICIDES” (FMC Corporation, priority 2018, published 2021).

Assays:
Format in all cases: in vivo
[1] = tested on: Italian ryegrass (Lolium mutiflorum); assay: Test C preemergence, visual plant response rating
Procedure, shortened: (§1)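 Compounds in a non-phytotoxic solvent with surfactant were applied as a directed soil spray preemergence or to 2–10 cm, one- to two-leaf plants postemergence, in loam–sand soil. After about 10 d in a greenhouse, injury was visually rated against untreated controls on a 0–100 scale (100 = complete control).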

[2] = tested on: barnyardgrass (Echinochloa crus-galli); assay: Test C preemergence, visual plant response rating
Procedure, shortened: as §1

[3] = tested on: foxtail, giant (giant foxtail, Setaria faberi); assay: Test C preemergence, visual plant response rating
Procedure, shortened: as §1

kochia (Bassia scoparia) [4] = assay: Test C preemergence, visual plant response rating
Procedure, shortened: as §1

[5] = tested on: pigweed (Amaranthus retroflexus); assay: Test C preemergence, visual plant response rating
Procedure, shortened: as §1

[6] = tested on: ragweed (common ragweed, Ambrosia artemisiifolia); assay: Test C preemergence, visual plant response rating
Procedure, shortened: as §1

[7] = tested on: Italian ryegrass (Lolium mutiflorum); assay: Test C postemergence, visual plant response rating
Procedure, shortened: as §1

[8] = tested on: barnyardgrass (Echinochloa crus-galli); assay: Test C postemergence, visual plant response rating
Procedure, shortened: as §1

[9] = tested on: blackgrass (Alopecurus myosuroides); assay: Test C postemergence, visual plant response rating
Procedure, shortened: as §1

corn (Zea mays) = assay: Test C postemergence, visual plant response rating
Procedure, shortened: as §1

[10] = tested on: foxtail, giant (giant foxtail, Setaria faberi); assay: Test C postemergence, visual plant response rating
Procedure, shortened: as §1

[11] = tested on: galium (catchweed bedstraw, Galium aparine); assay: Test C postemergence, visual plant response rating
Procedure, shortened: as §1

kochia (Bassia scoparia) [12] = assay: Test C postemergence, visual plant response rating
Procedure, shortened: as §1

[13] = tested on: pigweed (Amaranthus retroflexus); assay: Test C postemergence, visual plant response rating
Procedure, shortened: as §1

[14] = tested on: ragweed (common ragweed, Ambrosia artemisiifolia); assay: Test C postemergence, visual plant response rating
Procedure, shortened: as §1

[15] = tested on: wheat (Triticum aestivum); assay: Test C postemergence, visual plant response rating
Procedure, shortened: as §1

[16] = tested on: barnyardgrass (Echinochloa crus-galli); assay: Test D flooded paddy test, visual plant response rating; settings: 250 g ai/ha, scale 0 to 100 (0 no effect, 100 complete control), 13 to 15 d
Procedure, shortened: (§2)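 Plants were grown to the 2-leaf stage, pots flooded to 3 cm above soil, and compound applied directly into the paddy water, with the depth held throughout. After 13 to 15 d in a greenhouse, response was rated visually against untreated controls on a 0–100 scale (0 no effect, 100 complete control).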

[17] = tested on: duck salad (Heteranthera limosa); assay: as above; settings: 250 g ai/ha, scale 0 to 100 (0 no effect, 100 complete control), 13 to 15 d
Procedure, shortened: as §2

rice (Oryza sativa) = assay: as above; settings: 250 g ai/ha, scale 0 to 100 (0 no effect, 100 complete control), 13 to 15 d
Procedure, shortened: as §2

[18] = tested on: sedge umbrella (small-flower umbrella sedge, Cyperus difformis); assay: as above; settings: 250 g ai/ha, scale 0 to 100 (0 no effect, 100 complete control), 13 to 15 d
Procedure, shortened: as §2

[19] = Test C, 31 g ai/ha, 0 is no effect, 100 is complete control
[20] = Test C, 125 g ai/ha, 0 is no effect, 100 is complete control
[21] = Test C, postemergence, 125 g ai/ha
[22] = Test C, postemergence, 31 g ai/ha

Row | SMILES | Ryegrass, Italian plant response rating (0 to 100 scale) [1, 19] | Barnyardgrass plant response rating (0 to 100 scale) [2, 19] | Foxtail, Giant plant response rating (0 to 100 scale) [3, 19] | Kochia plant response rating (0 to 100 scale) (kochia (Bassia scoparia) [4]; [19]) | Pigweed plant response rating (0 to 100 scale) [5, 19] | Ragweed plant response rating (0 to 100 scale) [6, 19] | Ryegrass, Italian plant response rating (0 to 100 scale) ([7]; Postemergence, 31 g ai/ha) | Ryegrass, Italian plant response rating (0 to 100 scale) [7, 21] | Barnyardgrass plant response rating (0 to 100 scale) [8, 21] | Blackgrass plant response rating (0 to 100 scale) [9, 21] | Corn plant response rating (0 to 100 scale) (corn (Zea mays); [21]) | Foxtail, Giant plant response rating (0 to 100 scale) [10, 21] | Galium plant response rating (0 to 100 scale) [11, 21] | Kochia plant response rating (0 to 100 scale) (kochia (Bassia scoparia) [12]; [21]) | Pigweed plant response rating (0 to 100 scale) ([13]; Postemergence, 31 g ai/ha) | Pigweed plant response rating (0 to 100 scale) [13, 21] | Ragweed plant response rating (0 to 100 scale) ([14]; Postemergence, 31 g ai/ha) | Ragweed plant response rating (0 to 100 scale) [14, 21] | Wheat plant response rating (0 to 100 scale) ([15]; Postemergence, 31 g ai/ha) | Wheat plant response rating (0 to 100 scale) [15, 21] | further results
1 | CON=C(c1cccc(OC)c1)c1c(O)c(C)nn(C)c1=O [Compound 204] | 0 | 0 | 0 | 0 | 0 | 0 | 0 | 0 | 0 | 0 | 0 | 0 | 40 | 10 | 0 | 10 | 0 | 0 | 0 | 0 | Ryegrass, Italian plant response rating (0 to 100 scale) [1, 20]: 0; Barnyardgrass plant response rating (0 to 100 scale) [2, 20]: 0; Foxtail, Giant plant response rating (0 to 100 scale) [3, 20]: 0; Kochia plant response rating (0 to 100 scale) (kochia (Bassia scoparia) [4]; [20]): 0; Pigweed plant response rating (0 to 100 scale) [5, 20]: 0; Ragweed plant response rating (0 to 100 scale) [6, 20]: 0; Barnyardgrass plant response rating (0 to 100 scale) ([8]; Postemergence, 31 g ai/ha): 0; Blackgrass plant response rating (0 to 100 scale) ([9]; Postemergence, 31 g ai/ha): 0; Corn plant response rating (0 to 100 scale) (corn (Zea mays); Postemergence, 31 g ai/ha): 0; Foxtail, Giant plant response rating (0 to 100 scale) ([10]; Postemergence, 31 g ai/ha): 0; Galium plant response rating (0 to 100 scale) ([11]; Postemergence, 31 g ai/ha): 10; Kochia plant response rating (0 to 100 scale) (kochia (Bassia scoparia) [12]; Postemergence, 31 g ai/ha): 0; Plant response rating, Barnyardgrass (Flood) [16]: 0; Plant response rating, Ducksalad (Flood) [17]: 0; Plant response rating, Rice (Flood) (rice (Oryza sativa)): 0; Plant response rating, Sedge, Umbrella (Flood) [18]: 0
2 | CO/N=C(/c1cc(Cl)cc(Br)c1)c1c(O)c(C)nn(C)c1=O [Compound 156] | 100 | 0 | 50 | 40 | 40 | 100 | 100 | 100 | 70 | 30 | 20 | 90 | 100 | 100 | 70 | 80 | 90 | 100 | 0 | 50 | Ryegrass, Italian plant response rating (0 to 100 scale) ([1]; 125 g ai/ha): 100; Barnyardgrass plant response rating (0 to 100 scale) ([2]; 125 g ai/ha): 80; Foxtail, Giant plant response rating (0 to 100 scale) ([3]; 125 g ai/ha): 100; Kochia plant response rating (0 to 100 scale) (kochia (Bassia scoparia) [4]; 125 g ai/ha): 100; Pigweed plant response rating (0 to 100 scale) ([5]; 125 g ai/ha): 80; Ragweed plant response rating (0 to 100 scale) ([6]; 125 g ai/ha): 100; Barnyardgrass plant response rating (0 to 100 scale) [8, 22]: 40; Blackgrass plant response rating (0 to 100 scale) [9, 22]: 30; Corn plant response rating (0 to 100 scale) (corn (Zea mays); [22]): 20; Foxtail, Giant plant response rating (0 to 100 scale) [10, 22]: 60; Galium plant response rating (0 to 100 scale) [11, 22]: 100; Kochia plant response rating (0 to 100 scale) (kochia (Bassia scoparia) [12]; [22]): 80; Plant response rating, Barnyardgrass (Flood) [16]: 0; Plant response rating, Ducksalad (Flood) [17]: 30; Plant response rating, Rice (Flood) (rice (Oryza sativa)): 0; Plant response rating, Sedge, Umbrella (Flood) [18]: 30
3 | CON=C(c1ccc(F)c(Br)c1)c1c(O)c(C)nn(C)c1=O [Compound 177] | 0 | 40 | 0 | 0 | 0 | 0 | 30 | 60 | 20 | 0 | 0 | 10 | 80 | 70 | 40 | 60 | 20 | 60 | 0 | 0 | Ryegrass, Italian plant response rating (0 to 100 scale) ([1]; 125 g ai/ha): 10; Barnyardgrass plant response rating (0 to 100 scale) ([2]; 125 g ai/ha): 60; Foxtail, Giant plant response rating (0 to 100 scale) ([3]; 125 g ai/ha): 10; Kochia plant response rating (0 to 100 scale) (kochia (Bassia scoparia) [4]; 125 g ai/ha): 0; Pigweed plant response rating (0 to 100 scale) ([5]; 125 g ai/ha): 10; Ragweed plant response rating (0 to 100 scale) ([6]; 125 g ai/ha): 20; Barnyardgrass plant response rating (0 to 100 scale) ([8]; Postemergence, 31 g ai/ha): 0; Blackgrass plant response rating (0 to 100 scale) ([9]; Postemergence, 31 g ai/ha): 0; Corn plant response rating (0 to 100 scale) (corn (Zea mays); Postemergence, 31 g ai/ha): 0; Foxtail, Giant plant response rating (0 to 100 scale) ([10]; Postemergence, 31 g ai/ha): 10; Galium plant response rating (0 to 100 scale) ([11]; Postemergence, 31 g ai/ha): 40; Kochia plant response rating (0 to 100 scale) (kochia (Bassia scoparia) [12]; Postemergence, 31 g ai/ha): 10; Plant response rating, Barnyardgrass (Flood) [16]: 0; Plant response rating, Ducksalad (Flood) [17]: 0; Plant response rating, Rice (Flood) (rice (Oryza sativa)): 0; Plant response rating, Sedge, Umbrella (Flood) [18]: 0
